Publication PMC6934184, “Selective DNA-PKcs inhibition extends the therapeutic index of localized radiotherapy and chemotherapy” (The Journal of Clinical Investigation, 2019)

Target: T1, PLK4 (Homo sapiens, UniProt O00444)
T1 construct: purchased Thermo Fisher Scientific (Life Technologies) SelectScreen
Assay: SelectScreen LanthaScreen
Assay type: binding
Conditions: read-out: % displacement
In short: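 SelectScreen broad panel; activity (Z'LYTE, Adapta) plus binding formats. ATP: Km app for CSF1R Z'LYTE; 10 for CAMK1 Adapta. Readout = % per kinase.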

T1 sequence (O00444 whole entry): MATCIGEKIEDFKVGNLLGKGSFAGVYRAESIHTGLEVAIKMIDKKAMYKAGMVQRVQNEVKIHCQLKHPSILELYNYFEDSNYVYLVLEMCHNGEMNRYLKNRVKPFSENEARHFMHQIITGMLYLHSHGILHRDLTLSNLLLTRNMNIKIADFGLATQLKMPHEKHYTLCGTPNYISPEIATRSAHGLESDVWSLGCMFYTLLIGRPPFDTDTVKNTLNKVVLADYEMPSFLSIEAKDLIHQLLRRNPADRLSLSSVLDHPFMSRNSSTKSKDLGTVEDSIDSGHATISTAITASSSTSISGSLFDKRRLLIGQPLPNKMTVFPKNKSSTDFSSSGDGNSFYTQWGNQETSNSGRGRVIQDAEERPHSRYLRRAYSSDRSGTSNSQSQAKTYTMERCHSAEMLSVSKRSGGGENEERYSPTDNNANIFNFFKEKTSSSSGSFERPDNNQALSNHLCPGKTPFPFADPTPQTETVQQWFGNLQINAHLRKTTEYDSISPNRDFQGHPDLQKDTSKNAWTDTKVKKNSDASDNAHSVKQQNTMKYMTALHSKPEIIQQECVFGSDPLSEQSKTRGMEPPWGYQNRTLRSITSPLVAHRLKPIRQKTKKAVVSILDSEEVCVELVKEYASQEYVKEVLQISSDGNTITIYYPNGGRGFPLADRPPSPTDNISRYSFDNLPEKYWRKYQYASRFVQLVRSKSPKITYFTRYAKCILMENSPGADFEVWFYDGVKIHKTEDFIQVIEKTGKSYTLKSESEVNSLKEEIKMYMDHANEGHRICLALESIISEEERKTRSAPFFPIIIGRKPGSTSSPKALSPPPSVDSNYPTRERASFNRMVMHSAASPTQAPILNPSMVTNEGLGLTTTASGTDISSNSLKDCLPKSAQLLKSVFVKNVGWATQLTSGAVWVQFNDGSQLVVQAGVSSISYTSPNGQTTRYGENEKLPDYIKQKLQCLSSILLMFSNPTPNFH

CN(C(=O)CN1CCOCC1)c1ccc2sc3c(-c4cccc5c(=O)cc(N6CC7CCC(C6)O7)oc45)cccc3c2c1 [NU5455]
inhibition at 1 µM: -2.8%
